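Five concentrations, 48 hours, 96-well plates. TGI: total growth inhibition.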 Bounds are passed on as bounds.

Test systems include LOX IMVI melanoma; HCT-116 colon; RXF 393 renal; CAKI-1 renal; HL-60(TB) leukemia; HOP-92 NSCLC; M19-MEL melanoma; SR leukemia; RPMI-8226 leukemia; HOP-18 NSCLC; DMS 114 small cell lung; NCI-H226 lung; UO-31 renal; M14 melanoma; MDA-MB-231 breast; MDA-N.
Assay in all cases: inhibition of tumour cell growth, NCI panel, 48 h

For the compound `COC(=O)C(=Cc1cc(OC)c(OC)c(OC)c1-c1cc2c(cc1C(C)=O)OCO2)C(=O)OC`, the TGI worked out at 79.4 µM with LOX IMVI melanoma; 62.5 µM with HCT-116 colon; 63.7 µM in the experiment on RXF 393 renal; 108 µM in the experiment with CAKI-1 renal; 172 µM with HL-60(TB) leukemia; 124 µM with HOP-92 NSCLC. In addition, the TGI in the experiment with M19-MEL melanoma was 75 µM; in the experiment on SR leukemia it was greater than 211 µM; with RPMI-8226 leukemia, greater than 211 µM; in the experiment with HOP-18 NSCLC, 87.4 µM; in the experiment on DMS 114 small cell lung it was 99.4 µM; in the experiment on NCI-H226 lung it was 100 µM.

As for `C/C(=C1/CCC/C(=C(/C)c2ccccc2)C1=O)c1ccccc1`, the TGI in the experiment with LOX IMVI melanoma was greater than 100 µM; in the experiment on HCT-116 colon, 55.5 µM; in the experiment on RXF 393 renal, 47.6 µM; with HL-60(TB) leukemia it was 27.9 µM; in the experiment with HOP-92 NSCLC, greater than 100 µM; with M19-MEL melanoma, 58.3 µM. The TGI is 43.5 µM in the experiment on SR leukemia; greater than 100 µM in the experiment with UO-31 renal; greater than 100 µM in the experiment with RPMI-8226 leukemia; greater than 100 µM with HOP-18 NSCLC; greater than 100 µM in the experiment with M14 melanoma; 70.3 µM in the experiment on DMS 114 small cell lung. This compound also showed a TGI in the experiment on NCI-H226 lung of 56.5 µM.

In the case of `COc1ccc(-c2cc(=O)c3ccccc3[nH]2)c(OC)c1`, the TGI in the experiment on LOX IMVI melanoma, in the experiment with HCT-116 colon, in the experiment on RXF 393 renal, in the experiment with HL-60(TB) leukemia, in the experiment with M19-MEL melanoma and in the experiment with SR leukemia was greater than 100 µM in each case. Moreover, the TGI with UO-31 renal, in the experiment on RPMI-8226 leukemia, in the experiment with M14 melanoma and in the experiment with DMS 114 small cell lung was greater than 100 µM in each case.

With `CCN(CC)CC(=O)O[C@]1(CC)C(=O)OCc2c1cc1n(c2=O)Cc2cc3ccccc3nc2-1`, the TGI came to 31.3 µM in the experiment with MDA-MB-231 breast; 0.177 µM in the experiment with LOX IMVI melanoma; 0.352 µM in the experiment on HCT-116 colon; 0.564 µM with RXF 393 renal; 0.145 µM in the experiment with CAKI-1 renal; 0.401 µM in the experiment on HL-60(TB) leukemia. The TGI in the experiment on HOP-92 NSCLC is 2.12 µM; in the experiment with M19-MEL melanoma it was 0.738 µM; in the experiment with UO-31 renal, 0.182 µM; in the experiment on RPMI-8226 leukemia, 1.85 µM; in the experiment on MDA-N it was 1.58 µM; with HOP-18 NSCLC it was greater than 100 µM. Also, the TGI was determined as 0.318 µM in the experiment on M14 melanoma, 0.362 µM in the experiment with DMS 114 small cell lung and 0.23 µM in the experiment on NCI-H226 lung.

In the case of `Cc1ccc(S(=O)(=O)OC(c2ccc(Cl)cc2Cl)C2OC(=O)c3ccccc32)cc1` (centres undefined), the TGI in the experiment on LOX IMVI melanoma is greater than 100 µM; with HCT-116 colon, greater than 100 µM; with RXF 393 renal it was greater than 100 µM; in the experiment with HL-60(TB) leukemia it was 86.1 µM; in the experiment on M19-MEL melanoma it was greater than 100 µM; in the experiment with SR leukemia, greater than 100 µM. The TGI in the experiment with UO-31 renal is 95.6 µM; in the experiment on RPMI-8226 leukemia it was greater than 100 µM; in the experiment with M14 melanoma, greater than 100 µM; with DMS 114 small cell lung, greater than 100 µM; in the experiment on NCI-H226 lung, greater than 100 µM.

Take `CCOC(=O)C(Cc1cn(S(=O)(=O)c2ccccc2)c2ccccc12)(NC(C)=O)C(=O)OCC`: the TGI in the experiment with HCT-116 colon was 95.8 µM; in the experiment on CAKI-1 renal it was greater than 100 µM; with HL-60(TB) leukemia, 41.5 µM; in the experiment on HOP-92 NSCLC, 67.1 µM; in the experiment on M19-MEL melanoma, greater than 100 µM; with SR leukemia, 69.8 µM. In addition, the TGI in the experiment on UO-31 renal is 55.8 µM; in the experiment on RPMI-8226 leukemia it was 44.7 µM; in the experiment with M14 melanoma, greater than 100 µM; in the experiment on DMS 114 small cell lung it was 80.4 µM; with NCI-H226 lung it was 93.6 µM.

`COc1cccc(/C=C2\C(=O)N(C(=O)c3ccc(NC(C)=O)cc3)N=C2C)c1`: the TGI with LOX IMVI melanoma, in the experiment with HCT-116 colon, with CAKI-1 renal, with M19-MEL melanoma, in the experiment on UO-31 renal and in the experiment on M14 melanoma was greater than 100 µM each time. In addition, the TGI in the experiment with DMS 114 small cell lung and with NCI-H226 lung was greater than 100 µM each time.

Consider `CCO/N=C(/N)c1ncn(Cc2ccccc2)c1NCC(OCC)OCC`, for which the TGI in the experiment with LOX IMVI melanoma is greater than 100 µM; in the experiment with HCT-116 colon, greater than 100 µM; in the experiment on RXF 393 renal it was 99.5 µM; in the experiment on CAKI-1 renal, greater than 100 µM; in the experiment with M19-MEL melanoma it was greater than 100 µM; in the experiment on UO-31 renal, greater than 100 µM. For the same compound, the TGI with RPMI-8226 leukemia, in the experiment with M14 melanoma, in the experiment with DMS 114 small cell lung and with NCI-H226 lung was greater than 100 µM each time.

For `CC(C)N1CN(C(C(=O)N[C@@H]2C(=O)N3C2SC(C)(C)C3C(=O)O)c2ccccc2)CSC1=S` (some centres undefined), the TGI with LOX IMVI melanoma, in the experiment on HCT-116 colon, in the experiment on CAKI-1 renal, in the experiment on HL-60(TB) leukemia, in the experiment on HOP-92 NSCLC and in the experiment on M19-MEL melanoma was greater than 100 µM throughout. The TGI in the experiment with UO-31 renal, with RPMI-8226 leukemia, in the experiment on HOP-18 NSCLC, in the experiment on M14 melanoma and in the experiment on DMS 114 small cell lung was greater than 100 µM throughout.

As for `COC(=O)C1C(=O)C=CN([C@H](C)c2ccccc2)[C@@H]1Cc1ccc(OC)c(OCc2ccccc2)c1I` (some centres undefined), the TGI with MDA-MB-231 breast is 46.7 µM; with LOX IMVI melanoma, 27.8 µM; with HCT-116 colon, 24.3 µM; with RXF 393 renal, 25.2 µM; in the experiment on CAKI-1 renal it was greater than 100 µM; in the experiment on HL-60(TB) leukemia it was 79 µM. Further, the TGI in the experiment on HOP-92 NSCLC is 17.4 µM; with SR leukemia, greater than 100 µM; in the experiment on UO-31 renal, 26.3 µM; with RPMI-8226 leukemia, greater than 100 µM; in the experiment with MDA-N it was 34.3 µM; in the experiment on M14 melanoma, 30.2 µM. Besides, the TGI with NCI-H226 lung turned out to be 32.7 µM.

`O=C1O/C(=C(/Br)c2ccc(Cl)c(Cl)c2)c2ccccc21`: the TGI with MDA-MB-231 breast, in the experiment with LOX IMVI melanoma, in the experiment on HCT-116 colon, with RXF 393 renal, in the experiment with CAKI-1 renal and in the experiment on HL-60(TB) leukemia was greater than 10 µM in each case. Also, the TGI in the experiment with HOP-92 NSCLC, with SR leukemia, with UO-31 renal, with RPMI-8226 leukemia, with MDA-N and in the experiment with M14 melanoma was greater than 10 µM throughout. In the experiment with NCI-H226 lung, this compound returned a TGI greater than 10 µM.

Turning to `CC(=NNC(=S)Nc1ccc(C)cc1)c1cccc(C(C)=NNC(=S)Nc2ccc(C)cc2)n1`, the TGI is greater than 100 µM with MDA-MB-231 breast; 91.7 µM in the experiment with LOX IMVI melanoma; 45.3 µM in the experiment on HCT-116 colon; 72 µM in the experiment on RXF 393 renal; 40.3 µM with CAKI-1 renal; 15.7 µM in the experiment with HL-60(TB) leukemia. Besides, the TGI in the experiment with HOP-92 NSCLC is greater than 100 µM; with SR leukemia, 27.1 µM; with UO-31 renal, greater than 100 µM; in the experiment on RPMI-8226 leukemia, 85.8 µM; with MDA-N, greater than 100 µM; with M14 melanoma it was 47.7 µM. This compound came in with a TGI in the experiment with NCI-H226 lung of 73.6 µM.

Regarding `Clc1ccc(-c2c(C3=NCCCN3)nnn2-c2ccc(Cl)cc2)cc1`, the TGI in the experiment with MDA-MB-231 breast is greater than 77.7 µM; in the experiment with LOX IMVI melanoma, 53 µM; in the experiment with HCT-116 colon, greater than 75.6 µM; in the experiment with RXF 393 renal it was 68.8 µM; in the experiment with CAKI-1 renal, greater than 94.1 µM; with HL-60(TB) leukemia it was 48.1 µM. In addition, the TGI with HOP-92 NSCLC is 64.5 µM; in the experiment on SR leukemia it was 40.7 µM; in the experiment with UO-31 renal, 90.4 µM; in the experiment on RPMI-8226 leukemia it was 62.4 µM; in the experiment on MDA-N, 39.3 µM; in the experiment with HOP-18 NSCLC, greater than 100 µM. Also, the values for the TGI in the experiment on M14 melanoma, in the experiment with DMS 114 small cell lung and in the experiment on NCI-H226 lung were 31.3 µM, 49.5 µM and greater than 100 µM, respectively.

Regarding `CN1C2CCC1CC(CCNC(c1ccccc1)c1ccccc1)C2` (centres undefined), the TGI in the experiment on MDA-MB-231 breast was 72.4 µM; with LOX IMVI melanoma it was 59.8 µM; with HCT-116 colon, greater than 100 µM; with RXF 393 renal, 39.1 µM; with CAKI-1 renal, greater than 100 µM; in the experiment on HL-60(TB) leukemia, greater than 100 µM. The TGI with HOP-92 NSCLC worked out at 43.2 µM; in the experiment with SR leukemia, 40.3 µM; in the experiment with UO-31 renal it was 56.5 µM; with RPMI-8226 leukemia it was 56.1 µM; in the experiment with MDA-N it was 30.6 µM; in the experiment with M14 melanoma it was 24.9 µM. The TGI with NCI-H226 lung was greater than 100 µM.

`O=C1NC2OCC(O)C(O)C2O1` (centres undefined): the TGI in the experiment with LOX IMVI melanoma, with HCT-116 colon, in the experiment with CAKI-1 renal, in the experiment on HL-60(TB) leukemia, with HOP-92 NSCLC and in the experiment on M19-MEL melanoma was greater than 100 µM in each case. The TGI in the experiment with SR leukemia, in the experiment on UO-31 renal, with HOP-18 NSCLC, with M14 melanoma and in the experiment with DMS 114 small cell lung was greater than 100 µM in each case.

(Values after PubChem BioAssay (NCI).)
